# pEC50: −log10 of the molar value. Structures can show the parent of a compound that is named as a salt. Where two headings read alike, the source gives them in different places.
# Tests used:
# primary neurons [1] = assay: TMRM fluorescence assay of inner mitochondrial membrane potential (ΔΨm); conditions: for Emax: read-out: TMRM (Effect-size); for pEC50: read-out: TMRM-EC50
# Procedure: Mitochondrial dyes. To assay the electrochemical potential across the inner mitochondrial membrane of cultured cells, we used the cell-permeant dye tetramethylrhodamine methyl ester (TMRM). For co-localization studies with Mt-GFP, TMRM was used at 20 nM on DIV14 and incubated for 30 min prior to imaging. For the orthogonal screen of compounds, TMRM was added to primary neurons on DIV13 at 10 nM, one hr prior to pintooling selected compounds, and incubated for 24 hr. Cells were washed 2× with pre-warmed fresh feeding media without B27 before measurements with a plate reader.
# (§1) A CLARIOstar (BMG LABTECH) microplate reader was used to measure fluorescence of TMRM and luminescence produced from the ATP.
# (§2) Mitochondrial membrane potential (Δψm) and luminescence-based ATP assays. […] Changes of ΔΨm in each well were monitored using the mitochondrial-specific, fluorescent dye TMRM (tetramethyl rhodamine, methyl ester; Molecular Probes) and measured using a CLARIOstar plate reader. […] This concentration was used throughout our experiments. […] Wells in columns 1 and 24 were not loaded with TMRM; these served to measure background signal which was subtracted from the wells to which TMRM was added. To measure the total ATP levels in neurons we utilized the CellTiter-Glo® luminescence-based ATP assay (Promega). DIV13 primary neurons were cultured for 24 h with either DMSO carrier or compound treatment, followed by removing 55 μl culture medium from each well. Plates were maintained at room temperature for 25 m, and 25 μl of CellTiter-Glo® Reagent with the substrate luciferin was then added to each well (Promega). Plates were covered with aluminum foil and shaken vigorously on an orbital shaker for 10 m at 200 rpm and maintained at room temperature for an additional 2 m in dark before being read with the plate reader set to the luminescence mode.
# Compound library and hit picking rules. We screened 2400 compounds from the MicroSource Spectrum library. […] FIGS. 13A-13E provide details of the assays used from which hit picking rules were made. In essence, the average fluorescence for each compound in the TMRM assay was determined and compared to the average fluorescence for compounds in the population on each assay plate to produce a Z-score. The Z-scores for each individual compound assayed across the four replicate plates was then averaged.
# primary neurons [2] = assay: CellTiter-Glo luminescence-based ATP assay; assay type: cell-based, mouse; conditions: for ATP: ATP orthogonal screen, 24 h; for pEC50: 15 concentrations from 6 nM to 100 uM; for Emax: read-out: ATP (Effect-size)
# Procedure: Measurement of ATP production. The total amount of ATP produced by cultured primary neurons was measured by CellTiter-Glo Luminescent Cell Viability Assay (Promega). A recombinant luciferase enzyme catalyzed the mono-oxygenation of luciferin while hydrolyzing ATP produced by the cells and emitting light. We followed the manufacturer's protocol with primary neurons on DIV14.
# as §1, §2
# Compound library and hit picking rules. We screened 2400 compounds from the MicroSource Spectrum library. […] FIGS. 13A-13E provide details of the assays used from which hit picking rules were made. In essence, the average fluorescence for each compound in the TMRM assay was determined and compared to the average fluorescence for compounds in the population on each assay plate to produce a Z-score. The Z-scores for each individual compound assayed across the four replicate plates was then averaged. Because of significant well location effects (outer rows) on each assay plate (FIG. 13G), we selected primary hits as enhancing well fluorescence above the μplate by 3σplate for inner row wells (rows C-N, columns 3-22), and by 2.5σplate for outer row wells (rows A, B, O, P; columns 3-22) (FIG. 14C-D). […] All orthogonal assays employed inner wells of the 384-well plates.
# [3] = Mus musculus, Primary neuron, dose response
# [4] = Mus musculus, Primary neuron, maximal percent increase relative to in-plate DMSO controls, dose response
# [5] = maximal percent increase relative to in-plate DMSO controls, dose response
Molecule,"TMRM Primary (primary neurons [1]; primary screen, 12.5 μM, 24 h) [Z-scores]","TMRM Rescreen (primary neurons [1]; rescreen, 24 h) [Z-scores]",ATP (primary neurons [2]) [Z-scores],other results
C1CCN2C[C@@H]3C[C@@H](CN4CCCC[C@@H]34)[C@H]2C1 [sparteine sulfate],2.65,1.95,2.92,–
CCCCOc1cc(C(=O)NCCN(CC)CC)c2ccccc2n1 [dibucaine hydrochloride],3.83,6.82,6.22,–
CC(C)NCC(O)COc1cccc2ccccc12.Cl (racemic) [propranolol hydrochloride (+/−)],4.03,3.07,5.06,–
CCOC(=O)C1=C[C@]2(CC)CCCN3CCc4c(n1c1ccccc41)[C@@H]32 [vinpocetine],5.76,6.16,6.29,–
C=C[C@@](C)(O)CC[C@H]1C(=C)C[C@H](OC(C)=O)[C@H]2C(C)(C)CCC[C@]12C [larixol acetate],3.96,5.67,2.67,–
CCNC1(c2cccs2)CCCCC1=O.Cl (stereo not drawn) [tiletamine hydrochloride],3.31,4.20,6.27,–
CN(C)CC/C=C1/c2ccccc2Sc2ccc(Cl)cc21 [chlorprothixene hydrochloride],6.17,5.04,3.17,–
CCOC(=O)C1=C(C)NC(C)=C(C(=O)OC)C1c1cccc(Cl)c1Cl (stereo not drawn) [felodipine],3.80,2.41,5.08,–
COC(=O)[C@H]1[C@H]2C[C@H]3c4[nH]c5ccccc5c4CCN3C[C@H]2CC[C@@H]1O [rauwolscine hydrochloride],4.30,8.77,8.40,"Emax (primary neurons [1]; Mus musculus, Primary neuron): 29.4%; pEC50 (primary neurons [1]; Mus musculus, Primary neuron): 5.34; pEC50 (primary neurons [2]; [3]): 6.00; Emax (primary neurons [2]; [4]): 20.9%"
C=C[C@](C)(O)CC[C@@H]1[C@@]2(C)CCCC(C)(C)[C@@H]2CC[C@@]1(C)O [sclareol],2.80,5.41,4.64,–
butacaine sulfate,3.85,5.06,6.99,–
COC(=O)[C@H]1[C@H]2C[C@@H]3c4[nH]c5cc(OC)ccc5c4CCN3C[C@H]2C[C@@H](OC(=O)c2cc(OC)c(OC)c(OC)c2)[C@@H]1OC [reserpine],7.44,7.89,5.29,"Emax (primary neurons [1]; Mus musculus, Primary neuron): 22.5%; pEC50 (primary neurons [1]; Mus musculus, Primary neuron): 6.19; pEC50 (primary neurons [2]; [3]): 6.92; Emax (primary neurons [2]; [4]): 20.5%"
CN(C)CCC=C1c2ccccc2C=Cc2ccccc21 [cyclobenzaprine hydrochloride],5.52,4.71,3.49,–
CCCCN1CCCCC1C(=O)Nc1c(C)cccc1C (stereo not drawn) [bupivacaine hydrochloride],5.35,5.25,4.80,–
OCCOCCN1CCN(C(c2ccccc2)c2ccc(Cl)cc2)CC1 (stereo not drawn) [hydroxyzine pamoate],3.15,6.04,5.22,–
O=C(c1ccc(F)cc1)C1CCN(CCn2c(=O)[nH]c3ccccc3c2=O)CC1 [ketanserin tartrate],5.62,5.26,5.68,"Emax (primary neurons [1]; Mus musculus, Primary neuron): 30%; pEC50 (primary neurons [1]; Mus musculus, Primary neuron): 5.89; pEC50 (primary neurons [2]; [3]): 6.80; Emax (primary neurons [2]; [4]): 19.1%"
COc1cc2nc(N3CCN(C(=O)C4COc5ccccc5O4)CC3)nc(N)c2cc1OC (stereo not drawn) [doxazosin mesylate],4.39,5.94,4.68,–

Molecule,"TMRM Primary (primary neurons [1]; primary screen, 12.5 μM, 24 h) [Z-scores]","TMRM Rescreen (primary neurons [1]; rescreen, 24 h) [Z-scores]",ATP (primary neurons [2]) [Z-scores],other results
C[C@]12CC[C@@H](O)C[C@@H]1CC[C@@H]1[C@@H]2CC[C@]2(C)C(=O)CC[C@@H]12 [androsterone],–,–,5.63,TMRM Primary (primary neurons [1]): 3.77 Z-scores; TMRM Rescreen (primary neurons [1]): 4.76 Z-scores
COc1ccc(CN(CCN(C)C)c2ncccn2)cc1 [thonzylamine hydrochloride],3.16,3.21,5.17,–
CCCNCC(O)COc1ccccc1C(=O)CCc1ccccc1 (stereo not drawn) [propafenone hydrochloride],3.75,5.04,5.18,–
CN[C@H]1CC[C@@H](c2ccc(Cl)c(Cl)c2)c2ccccc21 [sertraline hydrochloride],3.42,4.15,4.82,–
CCN(CC)C(=O)[C@@]1(c2ccccc2)C[C@H]1CN [levomilnacipran hydrochloride],3.26,3.53,3.87,–
C[C@]12CC[C@@H]3c4ccc(O)cc4C[C@@H](CCCCCCCCC[S+]([O-])CCCC(F)(F)C(F)(F)F)[C@H]3[C@@H]1CC[C@@H]2O (stereo partly drawn) [fulvestrant],3.31,6.27,4.27,–
CN1CCC(=C2c3ccccc3CC(=O)c3sccc32)CC1 [ketotifen fumarate],3.91,3.98,5.58,hit in TMRM primary screen when assayed at 4 h (primary neurons [1]; 12.5 μM): ketotifen fumarate*
pizotyline malate,3.21,5.84,7.13,"TMRM (Effect-size) (primary neurons [1]; [5]): 25.2%; pEC50 (primary neurons [1]; dose response, 15 concentrations from 6 nM to 100 uM): 5.59; pEC50 (primary neurons [2]; dose response): 6.44; ATP (Effect-size) (primary neurons [2]; [5]): 17.9%"
CCN(CC)CCOC(=O)C(c1ccccc1)c1ccccc1 [adiphenine hydrochloride],3.05,3.21,4.95,–
CC(=O)OCC(=O)[C@H]1CC[C@H]2[C@@H]3CCC4=CC(=O)CC[C@]4(C)[C@H]3CC[C@]12C [desoxycorticosterone acetate],2.81,1.08,3.62,hit in TMRM primary screen when assayed at 4 h (primary neurons [1]; 12.5 μM): desoxycorticosterone acetate*
COc1ccc(CN=c2[nH]c(N3CCC[C@H]3CO)ncc2C(=O)NCc2ncccn2)cc1Cl [avanafil],3.13,3.42,1.30,–
trimeprazine tartrate,3.13,3.94,5.75,–
CSc1nc2cc(Cl)c(Oc3cccc(Cl)c3Cl)cc2[nH]1 [triclabendazole],3.30,3.61,3.97,–
COc1ccc2c(c1)CC[C@@H]1[C@@H]2CC[C@]2(C)[C@@H](O)CC[C@@H]12 [estradiol methyl ether],3.74,3.55,4.80,–
CCCCNc1ccc(C(=O)OCCOCCOCCOCCOCCOCCOCCOCCOCCOC)cc1 [benzonatate],2.78,8.21,4.35,–
CCCCCCCCCCC[C@@H](C[C@@H]1OC(=O)[C@H]1CCCCCC)OC(=O)[C@H](CC(C)C)NC=O [orlistat],3.43,1.56,2.36,–
